According to patent US20050112573A1, “Method of detecting toxic substance” (priority 2001, published 2005):

Test system: yeast genes (level of expressed mRNA)
Test: DNA chip analysis of expressed mRNA of yeast genes after 2 h culture with a toxic chemical substance
Assay type: cell-based, Saccharomyces cerevisiae S288C
Procedure: Yeast (Saccharomyces cerevtisiae S288C (α SUC2mal mel gap2 CUP1)) were cultured at 25° C. on YPD medium (yeast extract 1%, polypepton 2%, glucose 2%). One of toxic chemical substances was added to the cell at logarithmic growth phase, and the cell was further cultured for two hours. Cell was cultured without any chemical substance in the same condition, and was used as control. Concentrations of the chemical substances were defined to inhibit the growth of the yeast but not lead to death.
After the completion of cultivation, the culture was centrifuged to collect the cells. To the cells, sodium acetate buffer (50 mM sodium acetate, 10 mM EDTA, 1% SDS) was added, and the mixture was shaken at 65° C. for five minutes, followed by returning to room temperature, and obtaining the supernatant, which procedure was repeated two times. To the supernatant, ½ amount of a solution of phenol/chloroform was added, and the mixture was centrifuged to give a supernatant, which was added with an equal amount of chloroform, and the mixture was centrifuged to give a supernatant. To the supernatant, an equal amount of isopropanol containing 0.3 M sodium acetate was added, and the mixture was allowed to stand at room temperature for 30 minutes, after which the mixture was centrifuged to give a sediment of the whole RNAs. Seventy % ethanol was added to the sediment, and the mixture was again centrifuged to give a sediment, which was then dried and dissolved in water. mRNA was isolated from the whole RNAs as followings. In view of the fact that a poly A chain is attached to the 3′ terminus of mRNA, a polynucleotide having a poly T structure which was immobilized on the surface of latex beads was used to trap the mRNA, and then the mRNA was washed and eluted with spine column (Oligotex-dT30<Super>mRNA Purification Kit, Takara). Reverse transcription of the mRNA was conducted with a reverse transcriptase (Super Script II Reverse Transcriptase; catalogue No. 18064-014, GibcoBRL) using fluorescence-labeled nucleotides to give cDNAs that were introduced with Cy3-dUTP or Cy5-dUTP during the reverse transcription.
The labeled cDNAs were dissolved in TE buffer (10 mM Tris-HCl/1 mM EDTA, pH8.0), and the solution was dropped on the DNA chip containing the whole genes of yeast (DNA Chip Research Inc. Japan) so that the cDNAs were hybridized on the DNA chip at 65° C. for over 12 hours. The fluoresces intensity of the DNA chip was read with a scanner, and the ratio relative to the fluorescence intensity resulting from the absence of chemical substance was estimated as the following, which is shown in Tables 1 to 9: [formula]
In the Tables, “Intensity” indicated in the rightmost column is a value of the level of expressed mRNA of each gene in control cells as divided by the average level of the expressions of the whole genes.

“manganese ethylenebis(dithiocarbamate) [(8)]” was tested, and the “The level of expressed mRNA in the presence of chemical substance/” value (yeast gene YAL053W, ratio to control without chemical) was 0.8, the “The level of expressed mRNA in the presence of chemical substance/The level of expressed mRNA in the absence of chemical substance” value (yeast gene YAR010C) was 1.3 and the “The level of expressed mRNA in the presence of chemical substance/The level of expressed mRNA in the absence of chemical substance” value (yeast gene YBL005W-A) was 1.0. For the same substance, the “The level of expressed mRNA in the presence of chemical substance/The level of expressed mRNA in the absence of chemical substance” value (yeast gene YBL041W) was 1.7, the “The level of expressed mRNA in the presence of chemical substance/The level of expressed mRNA in the absence of chemical substance” value (yeast gene YBL043W) was 2.1 and the “The level of expressed mRNA in the presence of chemical substance/” value (yeast gene YBL048W, ratio to control without chemical substance, 2 h culture) was 1.2. For the same substance, the “The level of expressed mRNA in the presence of chemical substance/The level of expressed mRNA in the absence of chemical substance” value (yeast gene YBL078C) was 1.6, the “The level of expressed mRNA in the presence of chemical substance/” value (yeast gene YBL107C, ratio to control without chemical substance, 2 h culture) was 1.9 and the “The level of expressed mRNA in the presence of chemical substance/in the absence of chemical substance” value (yeast gene YBR036C) was 0.7. The “The level of expressed mRNA in the presence of chemical substance/The level of expressed mRNA in the absence of chemical substance” value (yeast gene YBR214W) was 0.7, the “The level of expressed mRNA in the presence of chemical substance/in the absence of chemical substance” value (yeast gene YBR298C) was 0.5 and the “The level of expressed mRNA in the presence of chemical substance/The level of expressed mRNA in the absence of chemical substance” value (yeast gene YCL020W) was 1.7. The “The level of expressed mRNA in the presence of chemical substance/The level of expressed mRNA in the absence of chemical substance” value (yeast gene YCL027W) was 0.6, the “The level of expressed mRNA in the presence of chemical substance/The level of expressed mRNA in the absence of chemical substance” value (yeast gene YCR004C) was 1.2 and the “The level of expressed mRNA in the presence of chemical substance/The level of expressed mRNA in the absence of chemical substance” value (yeast gene YCR071C) was 0.9. For the same substance, the “The level of expressed mRNA in the presence of chemical substance/The level of expressed mRNA in the absence of chemical substance” value (yeast gene YCR088W) was 0.5, the “The level of expressed mRNA in the presence of chemical substance/The level of expressed mRNA in the absence of chemical substance” value (yeast gene YDL008W) was 1.2 and the “The level of expressed mRNA in the presence of chemical substance/” value (yeast gene YDL072C, ratio to control without chemical) was 0.8. The “The level of expressed mRNA in the presence of chemical substance/in the absence of chemical substance” value (yeast gene YDL078C) was 1.0, the “The level of expressed mRNA in the presence of chemical substance/” value (yeast gene YDL204W, ratio to control without chemical) was 1.1 and the “The level of expressed mRNA in the presence of chemical substance/in the absence of chemical substance” value (yeast gene YDL215C) was 1.1. For the same substance, the “The level of expressed mRNA in the presence of chemical substance/” value (yeast gene YDL222C, ratio to control without chemical) was 0.7, the “The level of expressed mRNA in the presence of chemical substance/The level of expressed mRNA in the absence of chemical substance” value (yeast gene YDL238C) was 5.8 and the “The level of expressed mRNA in the presence of chemical substance/The level of expressed mRNA in the absence of chemical substance” value (yeast gene YDR055W) was 1.6. The “The level of expressed mRNA in the presence of chemical substance/The level of expressed mRNA in the absence of chemical substance” value (yeast gene YDR084C) was 0.7, the “The level of expressed mRNA in the presence of chemical substance/The level of expressed mRNA in the absence of chemical substance” value (yeast gene YDR085C) was 2.0 and the “The level of expressed mRNA in the presence of chemical substance/The level of expressed mRNA in the absence of chemical substance” value (yeast gene YDR104C) was 1.3. The “The level of expressed mRNA in the presence of chemical substance/The level of expressed mRNA in the absence of chemical substance” value (yeast gene YDR115W) was 1.3, the “The level of expressed mRNA in the presence of chemical substance/The level of expressed mRNA in the absence of chemical substance” value (yeast gene YDR259C) was 1.4 and the “The level of expressed mRNA in the presence of chemical substance/in the absence of chemical substance” value (yeast gene YDR297W) was 1.5. For the same substance, the “The level of expressed mRNA in the presence of chemical substance/The level of expressed mRNA in the absence of chemical substance” value (yeast gene YDR315C) was 1.4, the “The level of expressed mRNA in the presence of chemical substance/” value (yeast gene YDR330W, ratio to control without chemical substance, 2 h culture) was 1.1 and the “The level of expressed mRNA in the presence of chemical substance/The level of expressed mRNA in the absence of chemical substance” value (yeast gene YDR358W) was 1.2. For the same substance, the “The level of expressed mRNA in the presence of chemical substance/in the absence of chemical substance” value (yeast gene YDR387C) was 0.7, the “The level of expressed mRNA in the presence of chemical substance/The level of expressed mRNA in the absence of chemical substance” value (yeast gene YDR388W) was 0.8 and the “The level of expressed mRNA in the presence of chemical substance/” value (yeast gene YDR411C, ratio to control without chemical substance, 2 h culture) was 0.9. For the same substance, the “The level of expressed mRNA in the presence of chemical substance/The level of expressed mRNA in the absence of chemical substance” value (yeast gene YDR432W) was 0.5, the “The level of expressed mRNA in the presence of chemical substance/The level of expressed mRNA in the absence of chemical substance” value (yeast gene YDR481C) was 1.0 and the “The level of expressed mRNA in the presence of chemical substance/The level of expressed mRNA in the absence of chemical substance” value (yeast gene YDR510W) was 1.5. For the same substance, the “The level of expressed mRNA in the presence of chemical substance/” value (yeast gene YDR511W, ratio to control without chemical substance, 2 h culture) was 1.7, the “The level of expressed mRNA in the presence of chemical substance/” value (yeast gene YDR545W, ratio to control without chemical substance, 2 h culture) was 0.6 and the “The level of expressed mRNA in the presence of chemical substance/” value (yeast gene YEL001C, ratio to control without chemical) was 1.2. For the same substance, the “The level of expressed mRNA in the presence of chemical substance/The level of expressed mRNA in the absence of chemical substance” value (yeast gene YEL042W) was 0.7, the “The level of expressed mRNA in the presence of chemical substance/The level of expressed mRNA in the absence of chemical substance” value (yeast gene YEL066W) was 1.4 and the “The level of expressed mRNA in the presence of chemical substance/” value (yeast gene YER004W, ratio to control without chemical substance, 2 h culture) was 1.1. For the same substance, the “The level of expressed mRNA in the presence of chemical substance/” value (yeast gene YER035W, ratio to control without chemical substance, 2 h culture) was 1.2, the “The level of expressed mRNA in the presence of chemical substance/The level of expressed mRNA in the absence of chemical substance” value (yeast gene YER039C) was 0.7 and the “The level of expressed mRNA in the presence of chemical substance/” value (yeast gene YER079W, ratio to control without chemical substance, 2 h culture) was 1.4. The “The level of expressed mRNA in the presence of chemical substance/” value (yeast gene YER106W, ratio to control without chemical) was 1.2, the “The level of expressed mRNA in the presence of chemical substance/The level of expressed mRNA in the absence of chemical substance” value (yeast gene YER107C) was 0.8 and the “The level of expressed mRNA in the presence of chemical substance/The level of expressed mRNA in the absence of chemical substance” value (yeast gene YER130C) was 1.2. The “The level of expressed mRNA in the presence of chemical substance/” value (yeast gene YER158C, ratio to control without chemical substance, 2 h culture) was 0.9, the “The level of expressed mRNA in the presence of chemical substance/” value (yeast gene YER163C, ratio to control without chemical substance, 2 h culture) was 1.4 and the “The level of expressed mRNA in the presence of chemical substance/” value (yeast gene YER175C, ratio to control without chemical substance, 2 h culture) was 1.1. For the same substance, the “The level of expressed mRNA in the presence of chemical substance/” value (yeast gene YFL006W, ratio to control without chemical substance, 2 h culture) was 1.0.
